The text below walks through data of PubChem BioAssay (NCI).

Holding throughout (assay): growth of human tumour cells (NCI), 48 h
The subject of assay [1] is SN12C renal.
For assay [2], the system named is LOX IMVI melanoma.
The subject of assay [3] is NCI-H522 lung.
Assay [4] has as its system 786-0 renal.
Assay [5] concerns U251 CNS.
Assay [6] deals with SK-MEL-2 melanoma.
Assay [7] deals with OVCAR-3 ovarian.
Assay [8] has as its system MDA-MB-231 breast.
For assay [9], the system named is NCI/ADR-RES ovarian.
The subject of assay [10] is HL-60(TB) leukemia.

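Cells were grown in 96-well plates and exposed to each compound for 48 hours at five concentrations; endpoints were interpolated linearly between bracketing concentrations, or set to the highest concentration if not reached. Abbreviation: GI50, concentration required for 50% inhibition of growth. TGI marks complete inhibition of growth.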

With `COc1ccc(-c2[nH]c3ccc(OC)cc3c2C=C(C#N)C#N)cc1`, the GI50 was 15.9 µM in [1]; over 100 µM in assay [2]; over 100 µM in assay [3]; 14.3 µM in [4]; 0.607 µM in assay [5]; 5.85 µM in [6]. Further, the GI50 in [7] was 0.364 µM; in assay [8], 1.18 µM; in assay [9], 0.389 µM. Also, the TGI in [1], in [2], in assay [3], in assay [4], in assay [5] and in [6] was over 100 µM each time. Moreover, the TGI in assay [7] was 1.9 µM; in assay [8], over 100 µM; in assay [9] it was over 100 µM.

On to `CCCCCC/C=C\CCCCCCCCC(=O)c1cccc(OC)c1OC`, for which the TGI in assay [1] was over 100 µM; in assay [2], 32.9 µM; in assay [3], over 100 µM; in assay [4], over 100 µM; in assay [5], over 100 µM; in assay [6] it was over 100 µM. In addition, the results for the TGI in assay [8], in assay [10] and in assay [9] were over 100 µM, 69.9 µM and over 100 µM, respectively.

For the compound `O=C(COc1ccc(/C=C2\Oc3ccccc3C2=O)cc1)Nc1nc2ccccc2s1`, the GI50 in [1] is 10.5 µM; in assay [3], 0.207 µM; in assay [4], 5.26 µM; in assay [5], 6.35 µM; in assay [6] it was 14.6 µM; in assay [7] it was 1.9 µM. Besides, the GI50 is 4.7 µM in assay [8], 1.68 µM in assay [10] and 2.92 µM in assay [9]. The TGI in assay [1] was over 100 µM; in assay [3], 0.487 µM; in assay [4], 53.3 µM; in assay [5], over 100 µM; in assay [6], over 68.6 µM; in [7] it was 4.78 µM. Besides, the TGI in assay [8] is 60.3 µM; in assay [10], 3.51 µM; in [9], over 100 µM.

With `CNCc1ccc(-c2cc(-c3nc(-c4ccc(S(=O)(=O)C(C)C)cc4)cnc3N)on2)cc1`, the GI50 was 8.58 µM in assay [1]; 14.7 µM in [3]; 0.362 µM in [4]; 4.93 µM in assay [5]; 2 µM in assay [6]; 2.93 µM in assay [7]. In addition, the GI50 is 3.8 µM in [8], 1.35 µM in assay [10] and 3.08 µM in assay [9]. Also, the TGI in [1] stood at 33.4 µM; in assay [3], 39.2 µM; in assay [4] it was 11.3 µM; in assay [5], 21.5 µM; in [6], 16.4 µM; in assay [7] it was 10.6 µM. Besides, the values for the TGI in assay [8], in assay [10] and in [9] were 19.6 µM, 10.6 µM and over 74.4 µM, respectively.

For `[O]=[V]([OH])([OH])[OH]`, the GI50 in assay [1], in assay [2], in [3], in [4], in [5] and in [6] was over 100 µM each time. In addition, the GI50 in [7], in assay [8] and in assay [9] was over 100 µM throughout. The TGI in assay [1], in assay [2], in [3], in assay [4], in [5] and in assay [6] was over 100 µM throughout. Moreover, the TGI in [7], in [8] and in assay [9] was over 100 µM each time.

Regarding `Cc1cccc(Cn2cc(CO)c3cnccc32)c1`, the GI50 in [1] is over 100 µM; in assay [2], 67.3 µM; in [3], 60.3 µM; in assay [4], over 100 µM; in [5], 62.5 µM; in assay [6], over 100 µM. Also, the GI50 is 40.1 µM in [7], over 100 µM in assay [8] and 55.2 µM in assay [9]. Besides, the TGI in assay [1], in [2], in assay [3], in [4], in [5] and in assay [6] was over 100 µM throughout. Further, the TGI in assay [7], in [8] and in assay [9] was over 100 µM throughout.

Turning to `CCc1ccc(Nc2cc(C)c3ccc(O)cc3n2)cc1`, the GI50 in assay [1] was 6.24 µM; in assay [2], 5.03 µM; in [4], 6.07 µM; in assay [5], 6.84 µM; in [6], 9.97 µM; in assay [7], 11.7 µM. The GI50 is 3.12 µM in assay [8], 3.32 µM in assay [10] and 6.44 µM in [9]. In addition, the TGI in assay [1] was determined as 23.5 µM; in assay [2], 18.5 µM; in assay [4], 19.9 µM; in assay [5], 22.5 µM; in assay [6], 23.6 µM; in assay [7] it was 27.8 µM. The results for the TGI in assay [8], in assay [10] and in [9] were 13.7 µM, 12.5 µM and over 100 µM, respectively.

Regarding `COc1cc(-c2nccc3[nH]c(-c4ccc5cc[nH]c5c4)nc23)cc(OC)c1OC`, the GI50 in [1], in [2], in assay [4], in [5], in [6] and in assay [8] was under 0.01 µM in each case. Besides, the GI50 in assay [10] was under 0.01 µM; in [9] it was 0.01 µM. Also, the TGI in assay [1] was 9.93 µM; in assay [2], 1.5 µM; in assay [4], 2.03 µM; in assay [5], 1.85 µM; in [6], 3.06 µM; in assay [8] it was 1.96 µM. Besides, the TGI in assay [10] was under 0.01 µM; in assay [9], 10.7 µM.
